Reference: US20080267903A1, “Bioactive Polymers” (priority 2004, published 2008)
“And” between values parts separate entries of the source, which are not always exact repeats. Equal entries are not always repeated.

Experiments:
[1] = cited from earlier work
[2] = Systemic toxicity, tolerability and body weight after intravenous injection (FIG. 3); type: in vivo
Protocol: All formulations were prepared as solutions (or suspensions) in 5% dextrose. Each dose contained 250 μg of DAB 4, DAB 16, DAB 32, QDAB8, respectively. The PAMAM dendrimer and linear PEI were given as dilutions of Superfect (100 μl per animal) and Exgen (9 μl per animal) respectively, in 5% dextrose solution.
(§4) Animals were injected intravenously (0.2 ml per injection) with the different formulations either once or alternatively on a schedule every other day (0.5 q.d.) over 10 days (every second day, 5 injection). […] Each group consisted of 5 animals (n=5). As a control DAB 16-DNA complexes were prepared as previously described [36] by mixing dendrimer and DNA (50 μg) at a 5:1 weight ratio in a 5% dextrose solution (200 μl/animal). Free plasmid DNA (50 μg) was given in 200 μL 5% dextrose. Animals were monitored at regular intervals, the tumour size was determined using callipers, and body weight measured and recorded.

[3] = tested on: A431 epidermoid carcinoma (ATCC CRL-1555); assay: Established A431 xenografts, repeated injection every 2nd day over 10 days, long-term follow-up (FIGS. 6-8)
Protocol: A431 epidermoid carcinoma tumours were grafted into nude CD-1 mice and left to establish (˜5 mm). Animals were treated by injection of the relevant formulation every 2nd day over 10 days (5 injections). […] Tumour volume doubling time was measured as a surrogate endpoint as substantial tumour growth immediately precedes tumour related mortality.
All formulations were prepared as solutions (or suspensions) in 5% dextrose.
as §4

[4] = tested on: LS174T Human Colorectal Adenocarcinoma (ATCC CCL-188) xenografts; assay: Established LS174T xenografts, treatment q.2d 5x (FIG. 4); type: in vivo, mice; details: LS174T colorectal tumours, q.2d 5x i.v.
Protocol: (§1) Female mice (CD1-nu, initial mean weight 20 g) were housed in groups of five in suspended plastic cages at 19-23° C. with a 12 h light-dark cycle. A conventional diet (Rat and Mouse Standard Expanded, B and K Universal, Grimston, UK) and water from the mains were available ad libidum. Experimental work was carried out in accordance with UK Home Office regulations and approved by the local ethics committee.
(§2) Tumour cells [LS174 Human Colorectal Adenocarcinoma (ATCC CL-188), A431 Epidermoid Carcinoma (ATCC CRL-1555), C33a Human Cervix Carcinoma (ATCC HTB31)] were grown as monolayers in 75 cm^2 flasks in Dulbecco's Modified Eagle's Medium (DMEM) supplemented with 10% (v/v) foetal bovine serum (FBS) and 1% (v/v) glutamine, in a humid atmosphere of 5% CO2 at 37° C. Medium was changed twice a week. Cells were subcultured every seven days by trypsin treatment and experiments were conducted when the cells were in exponential phase. […]
(§3) Animals were injected intravenously (0.2 ml per injection) with the different formulations either once or alternatively on a schedule every other day (0.5 q.d.) over 10 days (every second day, 5 injection). […] Animals were monitored at regular intervals, the tumour size was determined using callipers, and body weight measured and recorded. Expression of genes containined on nucleic acids complexed with the various polymers was measured as described previously.

[5] = tested on: C33a Human Cervix Carcinoma (ATCC HTB31) xenografts; assay: Established C33a xenografts, treatment q.2d 5x (FIG. 5); type: in vivo, mice; details: C33a cervix carcinomas, q.2d 5x i.v.
Protocol: as §1, §2, §3

[6] = tested on: A431 epidermoid carcinoma cells; assay: Cytostatic effects of cationic polymers on tumour cells in vitro (FIG. 1); type: cell-based; details: lysis control
Protocol: A431 epidermoid carcinoma cells were treated with various cationic polymers. PEI, Superfect and various DAB polymers were added to the culture medium at concentrations of 0.45 μL/mL, 5 μL/mL and 12.5 μg/mL respectively for the duration of the experiment.

For `C[C@H](N)C(=O)O` [Alanine], the “pKa of the α-NH3+ group” value [1] is given as 9.9.

In the case of `N[C@@H](CC(=O)O)C(=O)O` [Aspartic acid], the “pKa of the α-NH3+ group” value [1] is listed as 10.0.

With `NCCCN(CCCN)CCCN(CCCCN(CCCN(CCCN)CCCN)CCCN(CCCN)CCCN)CCCN(CCCN)CCCN` [DAB8] the “time to death after i.v. injection” value [2] was 5 to 10 s.

For `NCCCN(CCCN)CCCN(CCCN(CCCN)CCCN)CCCN(CCCCN(CCCN(CCCN(CCCN)CCCN)CCCN(CCCN)CCCN)CCCN(CCCN(CCCN)CCCN)CCCN(CCCN)CCCN)CCCN(CCCN(CCCN)CCCN)CCCN(CCCN)CCCN` [DAB16], the “survival of the treated mice” value ([3]; 0.5 q.d. X5, long term experiment) was “long term survival”, the “complete disappearance of tumours, 2 mice” value ([3]; 0.5 q.d. X5, n=5) was 43 days and 51 days and the “start of decrease of the tumour size, 2 mice” value ([3]; 0.5 q.d. X5, n=5) was 23 days. For the same compound, the “start of decrease of the tumour size, all the mice” value ([3]; 0.5 q.d. X5, n=5) was 33 days, the “long-term tumour growth delay (tumour volume doubling time as surrogate endpoint)” value ([3]; 5 injections over 10 days, FIG. 7) was “improved long-term growth reduction” and the tumour growth ([3]; A431 epidermoid carcinoma model, q.2d 5x i.v.) was “inhibited tumour growth significantly”. For the same compound, the tumour growth [4] was “inhibited tumour growth significantly” and the tumour growth [5] was “inhibited tumour growth significantly”.

In the case of `N[C@@H](CO)C(=O)O` [Serine], the “pKa of the α-NH3+ group” value [1] is given as 9.1.

For triton X, the cell number [6] was “decrease in cell number consistent with cell lysis”.
